Experimental data published in article PMC10218348 (International Journal of Molecular Sciences, 2023).
Where two headings read alike, the source gives them in different places.

Legend:
[1] = target: human Cathepsin L (hCatL) (Homo sapiens, UniProt P07711); assay: Cathepsin L inhibition, fluorescence-based assay (Cbz-Phe-Arg-AMC); type: biochemical; conditions: for inhibition at 20 µM: 20 µM inhibitor, read-out: hCatL inhibition, initial screening; for Ki: Cheng-Prusoff, substrate Cbz-Phe-Arg-AMC 5 µM, KM 6.5 µM; for Selectivity Index (SI): human cathepsin L vs rhodesain
human Cathepsin L (hCatL), sequence (P07711 114-333): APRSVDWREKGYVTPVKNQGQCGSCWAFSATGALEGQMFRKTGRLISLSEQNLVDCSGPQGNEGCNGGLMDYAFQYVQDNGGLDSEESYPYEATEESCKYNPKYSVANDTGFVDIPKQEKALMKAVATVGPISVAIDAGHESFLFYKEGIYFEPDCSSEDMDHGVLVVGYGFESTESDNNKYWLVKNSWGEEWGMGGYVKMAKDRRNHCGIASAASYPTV
Protocol: The determination of the activity of the inhibition against human Cathepsin L (hCatL) was performed in fluorescence-based assays. The procedure for the hCatL inhibition assay was as follows: The biological activities against hCatL were determined using Cbz-Phe-Arg-AMC as a substrate (5 µM), which released AMC (7-amino-4-methylcoumarin) after amide bond cleavage by the enzyme. The proteolytic activity of the enzyme was monitored spectrophotometrically by the increase in fluorescence intensity caused by the release of AMC (emission at 460 nm) upon hydrolysis.
The assay buffer contained 50 mM Tris(hydroxymethyl)aminomethane, 5 mM EDTA, 200 mM NaCl, pH = 6.5, and 0.005% Brij 35 to avoid aggregation and false-positive results. The enzyme buffer contained 2 mM DTT rather than Brij 35.
Inhibitor solutions were prepared from stocks of DMSO.
CD34 and CD24 were then tested separately by Tian continuous assays, twice in duplicate in 96-well plates, for a total volume of 200 µL. An equivalent amount of DMSO was used as negative control. In more detail, we used 0.001 µM, 0.01 µM, 0.05 µM, 0.1 µM, 0.5 µM, 1 µM, and 10 µM for CD34 and CD24. The residual enzyme activities were determined continuously over a period of 10 min at room temperature.
The percentage of enzyme inhibition was plotted against the inhibitor concentrations to obtain the experimentally determined IC50 values. The inhibitory constants (Ki) were calculated according to the Cheng–Prusoff Equation (1), with KM = 6.5 µM for Cbz-Phe-Arg-AMC.

parasite (Trypanosoma) = test system: parasite (Trypanosoma); design: method as in PMID 35385806; conditions: read-out: EC50 antiparasitic activity; cited from earlier work
rhodesain [2] = target: T1, rhodesain (Trypanosoma brucei rhodesiense, UniProt Q95PM0); assay: Drug combination study against rhodesain (Chou-Talalay, Median Effect Plot, combination index); type: biochemical; conditions: combination at molar ratio 1:70
T1 construct: TEV cleavage site (C); GFP (C); hexahistidine-tag (6xHis) (C); made in house
T1 sequence (Q95PM0 entry or part of it): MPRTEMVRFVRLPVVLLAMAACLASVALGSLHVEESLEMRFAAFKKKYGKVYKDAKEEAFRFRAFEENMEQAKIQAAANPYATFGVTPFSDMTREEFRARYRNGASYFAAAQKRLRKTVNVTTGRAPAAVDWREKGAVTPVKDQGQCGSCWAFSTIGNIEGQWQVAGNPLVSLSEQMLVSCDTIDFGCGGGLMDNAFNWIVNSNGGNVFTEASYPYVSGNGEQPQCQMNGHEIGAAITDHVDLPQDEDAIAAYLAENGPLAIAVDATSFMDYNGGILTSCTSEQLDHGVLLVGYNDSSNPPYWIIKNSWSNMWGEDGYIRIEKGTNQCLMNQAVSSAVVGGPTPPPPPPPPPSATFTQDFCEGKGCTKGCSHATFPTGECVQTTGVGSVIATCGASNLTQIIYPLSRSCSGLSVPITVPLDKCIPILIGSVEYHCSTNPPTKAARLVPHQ
Description: In the median effect plot, the maximum response corresponds to 1 instead of 100 in the dose-response curve. Therefore, fa + fu = 1, where fa corresponds to the “affected fraction”, i.e., the percentage of enzyme that has been inhibited, while fu is the unaffected fraction, i.e., the residual enzyme activity. The slope of the straight line of each Median Effect Plot is the “m value”.
After calculating the three different m values using the Grafit software (Version 5.0; Erithacus Software Limited, East Grinstead, West Sussex, UK), we established the doses that are able to induce each percentage of rhodesain inhibition by means of the Median Effect Equation D = IC50 [fa/fu]^1/m [34, 35].
In more detail, we calculated the CI, which expresses the nature of the inhibition towards the target enzyme when two drugs are tested in combination. […]
Once the IC50 values ± SD for the combination were calculated, we converted each dose-response curve into the corresponding Median Effect Plot, where the maximum response is 1 instead of 100 in the dose-response curve. […]
Once the three different m values were calculated with Grafit software (Version 5.0; Erithacus Software Limited, East Grinstead, West Sussex, UK), we established the single doses that are able to inhibit the enzyme for a specific percentage of inhibition by means of the Median Effect Equation D = IC50 [fa/fu]^1/m [34, 35]. […]

rhodesain [3] = target: T1, rhodesain; assay: Rhodesain inhibition, Tian continuous fluorogenic assay (Cbz-Phe-Arg-AMC); type: biochemical
Protocol: CD34 was tested against recombinant rhodesain by using Cbz-Phe-Arg-AMC as a fluorogenic substrate. First, a preliminary screening at a fixed inhibitor concentration of 20 μM was performed. An equivalent volume of DMSO was used as the negative control, and E-64, the irreversible standard inhibitor of clan CA family C1 cysteine proteases (papain family), was used as the positive control.
An equivalent amount of DMSO was used as negative control. Product release from substrate hydrolysis (Cbz-Phe-Arg-AMC, 10 µM) was determined continuously over a period of 10 min at room temperature. The assay buffer contained 50 mM sodium acetate, pH = 5.5, 5 mM EDTA, 200 mM NaCl, and 0.005% Brij 35 to avoid aggregation and false-positive results. The enzyme buffer contained 5 mM DTT rather than Brij 35. Inhibitor solutions were prepared from stocks of DMSO.
Fluorescence of the product AMC of the substrate hydrolyses was measured using an Infinite 200 PRO microplate reader (Tecan, Männedorf, Switzerland) at room temperature with a 380 nm excitation filter and a 460 nm emission filter. Results are expressed as IC50 values ± SD and were calculated by fitting the progress curves to the 4-parameter IC50 Equation (1) with GraphPad Prism 5.0.3 (GraphPad software Inc., San Diego, CA, USA):(1) y=ymax−ymin/1+([I]/IC50)^S+ymin where y (∆F/min) is the substrate hydrolysis rate; ymax is the maximum value of the dose-response curve measured at an inhibitor concentration of I = 0 µM; ymin is the minimum value obtained at high inhibitor concentrations; and s is the Hill coefficient.

rhodesain [4] = target: T1, rhodesain; conditions: cited from earlier work
[5] = cited from earlier work

CC(C)C[C@H](NC(=O)c1cccc(F)c1)C(=O)N[C@H](C#N)CCc1ccccc1 [CD24]
inhibition at 20 µM [1]: > 80% | Ki [1]: 34 ± 0.1 nM | Selectivity Index (SI) [1]: 2.12 | EC50 (parasite (Trypanosoma)): 10100 ± 500 nM

N#C[C@H](CCc1ccccc1)NC(=O)[C@H](Cc1ccccc1)NC(=O)c1cc(F)cc(F)c1 [CD34, N-((S)-1-((S)-1-Cyano-3-phenylpropylcarbamoyl)-2-phenylethyl)-3,5-difluorobenzamide]
m value (slope of Median Effect Plot) (rhodesain [2]): 1.0006 | inhibition at 20 µM [1]: > 80% | Ki [1]: 196 ± 22 nM | Selectivity Index (SI) [1]: 7.26 | IC50 (rhodesain [3]): 350 nM | Ki (rhodesain [3]): 27 ± 2.7 nM | Type of rhodesain inhibition (rhodesain [3]): reversibly inhibited | Rhodesain inhibition, preliminary screening (rhodesain [3]; 20 µM inhibitor): full inhibition | inhibition at 20 µM (rhodesain [3]; read-out: Rhodesain inhibition, preliminary screening): > 80%

CC(C)C[C@H](NC(=O)[C@H]1O[C@@H]1C(=O)O)C(=O)NCCCCN=C(N)N [E-64]
Ki [1]: 30 ± 3 nM | Ki (rhodesain [3]; Cheng-Prusoff from IC50, substrate Cbz-Phe-Arg-AMC 10 µM, KM 0.8 µM, read-out: Ki (nM) Rhodesain): 13 ± 0.2 nM

COc1cc(/C=C/C(=O)CC(=O)/C=C/c2ccc(O)c(OC)c2)ccc1O [curcumin]
m value (slope of Median Effect Plot) (rhodesain [2]): 0.9455 | Type of rhodesain inhibition (rhodesain [4]): non-competitive

Nc1nc(N)nc(Nc2ccc([As]3SCC(CO)S3)cc2)n1 (stereo not drawn) [melarsoprol]
Encephalopathy in treated patients [5]: 5–10%
